Columns and labels:
PD patients = assay: 1-year open label extension of placebo-controlled double-blind trials of opicapone with levodopa and AADC inhibitor (Examples 1A, 1B); type: in vivo, human
[1] = Tolerability in the Example 2 study; settings: OPC 25, 50 and 75 mg QD for 11 days

Cc1c(Cl)c(C)[n+]([O-])c(Cl)c1-c1noc(-c2cc(O)c(O)c([N+](=O)[O-])c2)n1 [opicapone, 5-[3-(2,5-dichloro-4,6-dimethyl-1-oxy-pyridin-3-yl)-[1,2,4]oxadiazol-5-yl]-3-nitrobenzene-1,2-diol]
difference in OFF time (PD patients; PD patients, at least 12 months post commencement of treatment with opicapone (with levodopa and AADCi), FIG. 1): approximately −2.0 hrs | difference in ON time without troublesome dyskinesia (PD patients; PD patients, at least 12 months post commencement of treatment with opicapone (with levodopa and AADCi), FIG. 2): approximately +1.5 hr | progression of PD (PD patients; patients treated with opicapone from an earlier stage compared with groups naïve to opicapone, once a day at bedtime): progressed less | tolerability profile [1]: favourable

Reference: US10357468B2, “Medicaments for slowing Parkinson's disease” (BIAL—PORTELA & CA, S.A., priority 2014, dated 2019)
